Experimental data taken from patent US20260285850A1, “SUBSTITUTED OXAZOLIDINONES AND IMIDAZOLINONES AS HERBICIDES” (FMC CORPORATION, priority 2023, published 2026).

How the values were obtained:
Format in all cases: in vivo
kochia (Bassia scoparia) [1] = experiment: Test A postemergence application, visual injury rating 0-100
Method in brief: (§1)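 Directed preemergence spray onto seeded soil or postemergence spray onto 2-10 cm plants (loam plus sand); compound carried in surfactant-containing non-phytotoxic solvent. Injury rated by eye after 10 d greenhouse growth; 0 = no effect, 100 = complete control.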

[2] = tested on: ragweed (common ragweed, Ambrosia artemisiifolia); experiment: as above
Method in brief: as §1

[3] = tested on: barnyardgrass (Echinochloa crus-galli); experiment: as above
Method in brief: as §1

soybean (Glycine max) [4] = experiment: as above
Method in brief: as §1

[5] = tested on: horseweed (Erigeron canadensis); experiment: as above
Method in brief: as §1

[6] = tested on: ryegrass, Italian (italian ryegrass, Lolium multiflorum); experiment: as above
Method in brief: as §1

[7] = tested on: oat, wild (wild oat, Avena fatua); experiment: as above
Method in brief: as §1

[8] = tested on: green foxtail (Setaria viridis); experiment: as above
Method in brief: as §1

corn (Zea mays) [9] = experiment: as above
Method in brief: as §1

[10] = tested on: palmer (palmer amaranth, palmer pigweed, Amaranthus palmeri); experiment: as above
Method in brief: as §1

[11] = tested on: blackgrass (Alopecurus myosuroides); experiment: as above
Method in brief: as §1

[12] = tested on: wheat (Triticum aestivum); experiment: as above
Method in brief: as §1

[13] = tested on: sedge, umbrella (small-flower umbrella sedge, Cyperus difformis); experiment: Test B flooded paddy test, visual plant response rating 0-100; conditions: 250 g ai/ha, Flood, applied to paddy water, evaluated after 13 days
Method in brief: (§2)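 Visual scores versus untreated controls were recorded 13 days after treatment of greenhouse-held plants. At the 2-leaf stage, pots were flooded 3 cm above the soil surface and compounds added straight to the water.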

[14] = tested on: ducksalad (Heteranthera limosa); experiment: as above; conditions: 250 g ai/ha, Flood, applied to paddy water, evaluated after 13 days
Method in brief: as §2

[15] = tested on: barnyardgrass (Echinochloa crusgalli); experiment: as above; conditions: 250 g ai/ha, Flood, applied to paddy water, evaluated after 13 days
Method in brief: as §2

rice (Oryza sativa) = experiment: as above; conditions: 250 g ai/ha, Flood, applied to paddy water, evaluated after 13 days
Method in brief: as §2

kochia (Bassia scoparia) [16] = experiment: Test A preemergence soil spray, visual injury rating 0-100; conditions: 10 days
Method in brief: as §1

[17] = tested on: ragweed (common ragweed, Ambrosia artemisiifolia); experiment: as above; conditions: 10 days
Method in brief: as §1

[18] = tested on: barnyardgrass (Echinochloa crus-galli); experiment: as above; conditions: 10 days
Method in brief: as §1

soybean (Glycine max) [19] = experiment: as above; conditions: 10 days
Method in brief: as §1

[20] = tested on: ryegrass, Italian (italian ryegrass, Lolium multiflorum); experiment: as above; conditions: 10 days
Method in brief: as §1

[21] = tested on: oat, wild (wild oat, Avena fatua); experiment: as above; conditions: 10 days
Method in brief: as §1

[22] = tested on: green foxtail (Setaria viridis); experiment: as above; conditions: 10 days
Method in brief: as §1

corn (Zea mays) [23] = experiment: as above; conditions: 10 days
Method in brief: as §1

[24] = tested on: palmer (palmer amaranth, palmer pigweed, Amaranthus palmeri); experiment: as above; conditions: 10 days
Method in brief: as §1

[25] = tested on: blackgrass (Alopecurus myosuroides); experiment: as above; conditions: 10 days
Method in brief: as §1

[26] = tested on: wheat (Triticum aestivum); experiment: as above; conditions: 10 days
Method in brief: as §1

[27] = 62 g ai/ha, postemergence, 10 days, 0 = no effect, 100 = complete control
[28] = Postemergence, 16 g ai/ha, greenhouse 10 days, 0 no effect, 100 complete control
[29] = 62 g ai/ha, 0 = no effect, 100 = complete control

CCOC(=O)C1=CCC(NC(=O)C2(C)CN(c3cc(F)cc(F)c3)C(=O)O2)C1 (centres unmarked) [Compound 112]
Kochia plant response rating (0-100) (kochia (Bassia scoparia) [1]; [27]): 90
Kochia plant response rating (0 to 100 scale) (kochia (Bassia scoparia) [1]; [28]): 60
Ragweed plant response rating (0-100) [2, 27]: 50
Ragweed plant response rating (0 to 100 scale) [2, 28]: 50
Barnyardgrass plant response rating (0-100) [3, 27]: 100
Barnyardgrass plant response rating (0 to 100 scale) [3, 28]: 100
Soybean plant response rating (0-100) (soybean (Glycine max) [4]; [27]): 80
Soybean plant response rating (0 to 100 scale) (soybean (Glycine max) [4]; [28]): 60
Horseweed plant response rating (0-100) [5, 27]: 0
Horseweed plant response rating (0 to 100 scale) [5, 28]: 0
Ryegrass, Italian plant response rating (0-100) [6, 27]: 90
Ryegrass, Italian plant response rating (0 to 100 scale) [6, 28]: 60
Oat, Wild plant response rating (0-100) [7, 27]: 90
Oat, Wild plant response rating (0 to 100 scale) [7, 28]: 50
Foxtail, Green plant response rating (0-100) [8, 27]: 90
Foxtail, Green plant response rating (0 to 100 scale) [8, 28]: 90
Corn plant response rating (0-100) (corn (Zea mays) [9]; [27]): 100
Corn plant response rating (0 to 100 scale) (corn (Zea mays) [9]; [28]): 100
Pigweed, Palmer plant response rating (0-100) [10, 27]: 80
Pigweed, Palmer plant response rating (0 to 100 scale) [10, 28]: 30
Blackgrass plant response rating (0-100) [11, 27]: 80
Blackgrass plant response rating (0 to 100 scale) [11, 28]: 70
Wheat plant response rating (0-100) [12, 27]: 90
Wheat plant response rating (0 to 100 scale) [12, 28]: 90
Plant response rating, Sedge, Umbrella (0 to 100 scale, 0 is no effect and 100 is complete control) [13]: 95
Plant response rating, Ducksalad (0 to 100 scale, 0 is no effect and 100 is complete control) [14]: 95
Plant response rating, Barnyardgrass (0 to 100 scale, 0 is no effect and 100 is complete control) [15]: 80
Plant response rating, Rice (0 to 100 scale, 0 is no effect and 100 is complete control) (rice (Oryza sativa)): 85
Kochia plant response rating (kochia (Bassia scoparia) [16]; 16 g ai/ha, 0 to 100 scale): 0
Kochia plant response rating (0-100) (kochia (Bassia scoparia) [16]; [29]): 70
Ragweed plant response rating ([17]; 16 g ai/ha, 0 to 100 scale): 0
Ragweed plant response rating (0-100) [17, 29]: 0
Barnyardgrass plant response rating ([18]; 16 g ai/ha, 0 to 100 scale): 20
Barnyardgrass plant response rating (0-100) [18, 29]: 100
Soybean plant response rating (soybean (Glycine max) [19]; 16 g ai/ha, 0 to 100 scale): 10
Soybean plant response rating (0-100) (soybean (Glycine max) [19]; [29]): 0
Ryegrass, Italian plant response rating ([20]; 16 g ai/ha, 0 to 100 scale): 60
Ryegrass, Italian plant response rating (0-100) [20, 29]: 80
Oat, Wild plant response rating ([21]; 16 g ai/ha, 0 to 100 scale): 0
Oat, Wild plant response rating (0-100) [21, 29]: 0
Foxtail, Green plant response rating ([22]; 16 g ai/ha, 0 to 100 scale): 20
Foxtail, Green plant response rating (0-100) [22, 29]: 100
Corn plant response rating (corn (Zea mays) [23]; 16 g ai/ha, 0 to 100 scale): 20
Corn plant response rating (0-100) (corn (Zea mays) [23]; [29]): 60
Pigweed, Palmer plant response rating ([24]; 16 g ai/ha, 0 to 100 scale): 0
Pigweed, Palmer plant response rating (0-100) [24, 29]: 100
Blackgrass plant response rating ([25]; 16 g ai/ha, 0 to 100 scale): 0
Blackgrass plant response rating (0-100) [25, 29]: 30
Wheat plant response rating ([26]; 16 g ai/ha, 0 to 100 scale): 40
Wheat plant response rating (0-100) [26, 29]: 70
